# Data from patent US11370798B2 (Vertex Pharmaceuticals Incorporated, priority 2012, dated 2022).
# System: HCT116 colorectal cancer cells
# Test: Cisplatin sensitization assay (96 h cell viability MTS);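 note: Test-compound concentration that lowers the Cisplatin IC50 by a set fold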
# Assay type: cell-based
# Settings: compound and Cisplatin added simultaneously, Cisplatin sensitization value
# Summary of the method: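 Viability read by MTS (1 h at 37° C) after 96 h co-exposure at 37° C, 5% CO2. Test compound and cisplatin were dosed simultaneously in a full concentration matrix, each 2-fold serially diluted from 10 μM final; sensitization values binned in μM.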
row,Compound,Cisplatin Sensitization Assay
1,"Nc1nn2cc(Cl)cnc2c1C(=O)Nc1cnccc1N1CCNC(C(F)(F)F)C1 (stereo not drawn) [I-N-70, 2-amino-6-chloro-N-(4-(3-(trifluoromethyl)piperazin-1-yl)pyridin-3-yl)pyrazolo[1,5-a]pyrimidine-3-carboxamide]",++ (Cisplatin sensitization value>0.02 μM but <0.2 μM)
2,"COc1cncc(NC(=O)c2c(N)nn3cc(F)cnc23)c1-c1cncn1C [I-C-81, 2-amino-6-fluoro-N-(5-methoxy-4-(1-methyl-1H-imidazol-5-yl)pyridin-3-yl)pyrazolo[1,5-a]pyrimidine-3-carboxamide]",+++ (Cisplatin sensitization value of <0.02 μM)
3,"COc1ccc(-c2ccncc2NC(=O)c2c(N)nn3cc(F)cnc23)cn1 [I-C-27, 2-amino-6-fluoro-N-(6-methoxy-[3,4′-bipyridin]-3′-yl)pyrazolo[1,5-a]pyrimidine-3-carboxamide]",++ (Cisplatin sensitization value>0.02 μM but <0.2 μM)
4,"Nc1nn2cc(Cl)cnc2c1C(=O)Nc1cnccc1OC1CN2CCC1CC2 (stereo not drawn) [I-O-62, 2-amino-6-chloro-N-(4-(quinuclidin-3-yloxy)pyridin-3-yl)pyrazolo[1,5-a]pyrimidine-3-carboxamide]",+++ (Cisplatin sensitization value of <0.02 μM)
5,"CCOc1ccncc1NC(=O)c1c(N)nn2cc(F)cnc12 [I-O-14, 2-amino-N-(4-ethoxypyridin-3-yl)-6-fluoropyrazolo[1,5-a]pyrimidine-3-carboxamide]",+++ (Cisplatin sensitization value of <0.02 μM)
6,"CCN1CCN(C(=O)C2CCN(c3c(F)cncc3NC(=O)c3c(N)nn4cc(F)cnc34)CC2)CC1 [I-G-9, 2-amino-N-(4-(4-(4-ethylpiperazine-1-carbonyl)piperidin-1-yl)-5-fluoropyridin-3-yl)-6-fluoropyrazolo[1,5-a]pyrimidine-3-carboxamide]",+++ (Cisplatin sensitization value of <0.02 μM)
7,"CN1CCC[C@H]1C(=O)N1CCN(c2ccncc2NC(=O)c2c(N)nn3cc(F)cnc23)CC1 [I-N-198, (S)-2-amino-6-fluoro-N-(4-(4-(1-methylpyrrolidine-2-carbonyl)piperazin-1-yl)pyridin-3-yl)pyrazolo[1,5-a]pyrimidine-3-carboxamide]",++ (Cisplatin sensitization value>0.02 μM but <0.2 μM)
8,"Nc1nn2cc(F)cnc2c1C(=O)Nc1cncc(F)c1N1CCN(C(=O)CN2CCC2)CC1 [I-N-160, 2-amino-N-(4-(4-(2-(azetidin-1-yl)acetyl)piperazin-1-yl)-5-fluoropyridin-3-yl)-6-fluoropyrazolo[1,5-a]pyrimidine-3-carboxamide]",+++ (Cisplatin sensitization value of <0.02 μM)
9,"Nc1nn2cc(F)cnc2c1C(=O)Nc1cncc(F)c1N1CCN(C2COC2)CC1 [I-N-13, 2-amino-6-fluoro-N-(5-fluoro-4-(4-(oxetan-3-yl)piperazin-1-yl)pyridin-3-yl)pyrazolo[1,5-a]pyrimidine-3-carboxamide]",+++ (Cisplatin sensitization value of <0.02 μM)
10,"CN1CCN2CCN(c3c(F)cncc3NC(=O)c3c(N)nn4cc(F)cnc34)CC2C1=O (stereo not drawn) [I-N-240, 2-amino-6-fluoro-N-(5-fluoro-4-(8-methyl-9-oxohexahydro-1H-pyrazino[1,2-a]pyrazin-2(6H)-yl)pyridin-3-yl)pyrazolo[1,5-a]pyrimidine-3-carboxamide]",++ (Cisplatin sensitization value>0.02 μM but <0.2 μM)
11,"Nc1nn2cc(F)cnc2c1C(=O)Nc1cnccc1C1CCN(C(=O)C2CC2)CC1 [I-C-70, 2-amino-N-(4-(1-(cyclopropanecarbonyl)piperidin-4-yl)pyridin-3-yl)-6-fluoropyrazolo[1,5-a]pyrimidine-3-carboxamide]",+++ (Cisplatin sensitization value of <0.02 μM)
12,"CS(=O)(=O)C1CCN(c2c(Cl)cncc2NC(=O)c2c(N)nn3cc(F)cnc23)C1 (stereo not drawn) [I-N-287, 2-amino-N-(5-chloro-4-(3-(methylsulfonyl)pyrrolidin-1-yl)pyridin-3-yl)-6-fluoropyrazolo[1,5-a]pyrimidine-3-carboxamide]",+++ (Cisplatin sensitization value of <0.02 μM)
